Measured values taken from patent EP0603240B1, “SAFENING HERBICIDAL PYRAZOLYLSULFONYLUREAS” (priority 1991, dated 1993).

Experiments:
Type in all cases: in vivo
corn [1] = assay: Example 20, Procedure II: Herbicide No. 1 + EPTC or ERADICANE EXTRA with Antidote Nos. 5 and 15
Experimental: (§1) Containers were filled and compacted with a fumigated silt loam top soil to a depth of about 1.3 cm from the top of the container. A first container was designated as an untreated control, a second container was designated as a herbicide control, and a third container was designated as a herbicide + antidote test container. Each of the containers was seeded with a crop species. A measured amount of herbicide dispersed or dissolved in acetone was applied to a measured quantity of soil. To this same quantity of soil treated with herbicide, there was added a measured amount of antidote dispersed or dissolved in acetone. The quantity of soil treated with the herbicide and antidote was thoroughly mixed to incorporate the herbicide and antidote in the soil uniformly. The seed bed in the third container of soil was covered with the soil treated with the herbicide and antidote and the container was leveled. For each test series, the seed beds of the first and second containers were likewise covered by soil layers. the cover layer of the first container was not treated with herbicide or antidote.
(§2) The containers were then placed on a bench in a greenhouse and sub-irrigated as required for the duration of the test. […] Plant response is measured in terms of percent injury. Antidote efficacy is indicated as the difference in plant injury by the herbicide(s) without the antidote and with the antidote.
(§3) This procedure is the same as Procedure I, but modified in the manner that after incorporation of the chemicals (herbicide and antidote) the containers with the covered seedbed were treated with an initial overhead irrigation equivalent to 0.6 cm rainfall, then subsequently sub-irrigated as required on greenhouse benches.
(§4) This example describes experiments designed to test two generally efficacious antidotal compounds, i.e., Antidote Nos. 5 and 15, against the herbicidal action of the sulfonylurea compound, Herbicide No. 1, and the commercial herbicides EPTC (Herbicide No. 4) and ERADICANE® EXTRA (EPTC + R-29148, Antidote No. 5). Procedure II above was used in conducting these experiments. Formulations of EPTC and ERADICANE EXTRA were applied onto soil cover layers (to be applied over seed beds), followed by sequential pipetting of Herbicide No. 1 and Antidote No. 15. The soil was mixed to homogeneity and spread over the seed beds followed by 0.6 cm of overhead irrigation.

[2] = system: velvetleaf (Abutilon theophrasti); assay: as above
Experimental: as §1, §2, §3
(§5) In the series of greenhouse tests described below, for routine screening purposes the herbicide/antidote compositions were tested in crop/weed combinations involving corn as the crop and either or both of the weeds barnyardgrass (Echinochloa crusgalli), a monocotyledonous weed, and velvetleaf (Abutilon theophrasti), a dicotyledonous weed. In the tables below, these weeds are indicated by the symbols "BYG" and "VL", respectively.
as §4

corn [3] = assay: Example 16, Procedure II: Herbicide No. 1 + EPTC (No. 4, EPTAM) with antidotes
Experimental: as §1, §2, §3
The test procedure used in these experiments was that of Procedure II described above. The antidotes were applied to a soil cover layer by pipet after spraying the herbicides onto the soil, followed by incorporation and overhead irrigation. […]

corn [4] = assay: Example 1, greenhouse Procedure II: antidotes against Herbicide No. 1
Experimental: as §1, §2, §3, §5
This example was designed to investigate the antidotal efficacy of a plurality of antidotes against Herbicide No. 1 in corn in the presence of barnyard grass and velvetleaf. The antidotes used in this example were Antidote Nos. 1-10, 12, 13 and 15.
The test in this example was conducted as described above for Procedure II. The antidotes were applied to the soil cover layer by pipet after spraying on the herbicide followed by incorporation and simulated rain.

corn [5] = assay: Example 26, field trials, preemergence surface application (PRE): corn growth reduction
Experimental: In order to better understand and to confirm the results of greenhouse tests with herbicidal compositions comprising representative compounds according to Formula I and an antidote with and without a co-herbicide, a large number of field trials were conducted. This example provides a summary of those field trials.
The primary purpose of the field trials summarized herein was to ascertain the amount of corn injury caused by a compound according to Formula I. viz. Herbicide No. 1, with and without a co-herbicide of the α-chloroacetanilide class, viz., Herbicide Nos. 6 and 7, and the extent that any corn injury could be safened by a dichloroacetamide antidotal compound, viz., Antidote No. 15.
Corn injury is generally expressed, in broad terms, in stand reduction, growth reduction, malformed plants and other more specific effects. For purposes of the summary here, the results of a plurality of field trials are expressed in terms of growth reduction (GR), i.e., a significant reduction in plant height of the corn stand. A common criteria for commercially-acceptable corn injury is an amount equal to or less than 10% malformed plants or stand reduction and for present reporting purposes, no greater than about 15% growth reduction. The corn injury/safening described for these field trials refers to commercially-unacceptable to commercially-acceptable performance.
In the field trials from a wide distribution of trial locations, soil types (all having in excess of 2% organic matter), climatic effects, etc., the test chemicals were applied as tank mixes in various modes of application, i.e., pre-plant incorporation (PPI) and preemergence surface application (PRE). Test plots were small plots with three replications in a randomized complete block design. Observations were made and recorded in a period of from 31-50 days after treatment.

[6] = system: velvetleaf (Abutilon theophrasti); assay: Example 4, Procedure I: Antidote Nos. 15 and 16 against Herbicide No. 1
Experimental: as §1, §2, §5
(§6) This example describes tests with Antidote Nos. 15 and 16 to safen Herbicide No. 1 according to Procedure I using corn and the weeds barnyardgrass and velvetleaf as the test plants.

[7] = system: barnyardgrass (Echinochloa crusgalli); assay: as above
Experimental: as §1, §2, §5, §6

[8] = Herbicide No.1 0.56 kg/ha + ERADICANE EXTRA 2.24 kg/ha
[9] = Herbicide No.1 0.56 kg/ha + ERADICANE EXTRA 4.48 kg/ha
[10] = Herbicide No.1 0.56 kg/ha + ERADICANE EXTRA 6.72 kg/ha
[11] = Herbicide No.1 0.56 kg/ha + No. 4 2.24 kg/ha, no antidote
[12] = Herbicide No.1 0.56 kg/ha + No. 4 4.48 kg/ha, no antidote
[13] = Herbicide No.1 0.56 kg/ha + No. 4 6.72 kg/ha, no antidote
[14] = Herbicide No.1 0.56 kg/ha alone
[15] = Herbicide No.1 2.24 kg/ha + ERADICANE EXTRA 2.24 kg/ha
[16] = Herbicide No.1 2.24 kg/ha + ERADICANE EXTRA 4.48 kg/ha
[17] = Herbicide No.1 2.24 kg/ha + ERADICANE EXTRA 6.72 kg/ha
[18] = Herbicide No.1 2.24 kg/ha + No. 4 2.24 kg/ha, no antidote
[19] = Herbicide No.1 2.24 kg/ha + No. 4 4.48 kg/ha, no antidote
[20] = Herbicide No.1 2.24 kg/ha + No. 4 6.72 kg/ha, no antidote
[21] = Herbicide No.1 2.24 kg/ha alone
[22] = Herb. No. 1 4.48 kg/ha, no antidote, average of two replicates
[23] = Herb. No. 1 6.72 kg/ha, no antidote, average of two replicates
[24] = Herb. No. 1 4.48 kg/ha + antidote 0.56 kg/ha
[25] = Herb. No. 1 4.48 kg/ha + antidote 2.24 kg/ha
[26] = Herb. No. 1 6.72 kg/ha + antidote 0.56 kg/ha
[27] = Herb. No. 1 6.72 kg/ha + antidote 2.24 kg/ha
[28] = Herbicide No.1 0.56 kg/ha + No. 4 2.24 kg/ha, Antidote No. 15 0.18 kg/ha
[29] = Herbicide No.1 0.56 kg/ha + No. 4 4.48 kg/ha, Antidote No. 15 0.35 kg/ha
[30] = Herbicide No.1 0.56 kg/ha + No. 4 6.78 kg/ha, Antidote No. 15 0.56 kg/ha
[31] = Herbicide No.1 2.24 kg/ha + No. 4 2.24 kg/ha, Antidote No. 15 0.18 kg/ha
[32] = Herbicide No.1 2.24 kg/ha + No. 4 4.48 kg/ha, Antidote No. 15 0.35 kg/ha
[33] = Herbicide No.1 2.24 kg/ha + No. 4 6.78 kg/ha, Antidote No. 15 0.56 kg/ha

## COC(=O)c1c(Cl)nn(C)c1S(=O)(=O)NC(=O)Nc1nc(OC)cc(OC)n1 [No.1]
Corn [1]; [8]
  % Injury Corn: 55%
Corn [1]; [9]
  % Injury Corn: 65%
Corn [1]; [10]
  % Injury Corn: 75%
Corn [1]; [11]
  % Injury Corn: 75%
Corn [1]; [12]
  % Injury Corn: 35%
Corn [1]; [13]
  % Injury Corn: 85%
Corn [1]; [14]
  % Injury Corn: 70%
Corn [1]; [15]
  % Injury Corn: 90%
Corn [1]; [16]
  % Injury Corn: 85%
Corn [1]; [17]
  % Injury Corn: 95%
Corn [1]; [18]
  % Injury Corn: 90%
Corn [1]; [19]
  % Injury Corn: 70%
Corn [1]; [20]
  % Injury Corn: 90%
Corn [1]; [21]
  % Injury Corn: 85%
[2]; [8]
  % Injury VL: 95%
[2]; [9]
  % Injury VL: 90%
[2]; [10]
  % Injury VL: 100%
[2]; [11]
  % Injury VL: 95%
[2]; [12]
  % Injury VL: 90%
[2]; [13]
  % Injury VL: 100%
[2]; [14]
  % Injury VL: 95%
[2]; [15]
  % Injury VL: 100%
[2]; [16]
  % Injury VL: 100%
[2]; [17]
  % Injury VL: 95%
[2]; [18]
  % Injury VL: 95%
[2]; [19]
  % Injury VL: 95%
[2]; [20]
  % Injury VL: 100%
[2]; [21]
  % Injury VL: 100%
Corn [3]; [14]
  % Injury Corn: 10%
Corn [3]; Herbicide No.1 1.12 kg/ha alone
  % Injury Corn: 15%

## COC(=O)c1c(Cl)nn(C)c1S(=O)(=O)NC(=O)Nc1nc(OC)cc(OC)n1 [Herbicide No. 1]
Corn [4]; Herb. No. 1 0.14 kg/ha, no antidote
  % Injury Corn: 5%
Corn [5]; Herbicide No. 1 0.07 kg/ha + acetochlor, no antidote
  corn growth reduction (GR): 9.8%
Corn [5]; Herbicide No. 1 0.14 kg/ha + acetochlor, no antidote
  corn growth reduction (GR): 13.4%
Corn [5]; Herbicide No. 1 0.28 kg/ha + acetochlor, no antidote
  corn growth reduction (GR): 20.3%
[6]; [22]
  % Injury VL: 90%
[6]; [23]
  % Injury VL: 90%
[7]; [22]
  % Injury BYG: 80%
[7]; [23]
  % Injury BYG: 90%

## CC1(C)OC(c2ccco2)CN1C(=O)C(Cl)Cl (centres unmarked) [compound 15]
Corn [4]; Herb. No. 1 0.14 kg/ha + antidote 2.24 kg/ha
  % Injury Corn: 5%
Corn [4]; Herb. No. 1 0.56 kg/ha + antidote 2.24 kg/ha
  % Injury Corn: 5%
[6]; [24]
  % Injury VL: 95%
[6]; [25]
  % Injury VL: 95%
[6]; [26]
  % Injury VL: 95%
[6]; [27]
  % Injury VL: 95%
[7]; [24]
  % Injury BYG: 95%
[7]; [25]
  % Injury BYG: 90%
[7]; [26]
  % Injury BYG: 90%
[7]; [27]
  % Injury BYG: 90%
Corn [3]; Herbicide No.1 1.12 kg/ha + EPTAM 6.72 kg/ha, antidote 2.24 kg/ha
  % Injury Corn: 5%

## CC1(C)OC(c2ccco2)CN1C(=O)C(Cl)Cl (centres unmarked) [Antidote No. 15, Oxazolidine, 3-(dichloroacetyl)-5-(2-furanyl)-2,2-dimethyl]
Corn [1]; [28]
  % Injury Corn: 5%
Corn [1]; [29]
  % Injury Corn: 15%
Corn [1]; [30]
  % Injury Corn: 0%
Corn [1]; [31]
  % Injury Corn: 35%
Corn [1]; [32]
  % Injury Corn: 15%
Corn [1]; [33]
  % Injury Corn: 15%
[2]; [28]
  % Injury VL: 90%
[2]; [29]
  % Injury VL: 95%
[2]; [30]
  % Injury VL: 95%
[2]; [31]
  % Injury VL: 95%
[2]; [32]
  % Injury VL: 95%
[2]; [33]
  % Injury VL: 100%
Corn [5]; Antidote No. 15 to Herbicide No. 1 ratio increased to 3:1
  crop injury, assessment in words: reduced crop injury even further
Corn [5]; Herbicide No. 1 0.07 kg/ha + acetochlor + Antidote No. 15
  corn growth reduction (GR): 8.7%
Corn [5]; Herbicide No. 1 0.14 kg/ha + acetochlor + Antidote No. 15
  corn growth reduction (GR): 8.2%
Corn [5]; Herbicide No. 1 0.28 kg/ha + acetochlor + Antidote No. 15
  corn growth reduction (GR): 14.5%
